Results: publication PMC9959349, “Discovery of the 3-Amino-1,2,4-triazine-Based Library as Selective PDK1 Inhibitors with Therapeutic Potential in Highly Aggressive Pancreatic Ductal Adenocarcinoma” (International Journal of Molecular Sciences, 2023)

How the values were obtained:
[1] = tested on: PSN-1 cells; assay: ROS production (CM-H2DCFDA); format: cell-based, human; conditions: 5 µM test compounds, antimycin 3 µM as positive control
Description: Consistently, tested compounds, although to different extents, were effective in reducing total cellular sulfhydryl contents in PSN-1-treated cells (Figure 9B).
The production of ROS was measured in PSN-1 cells (10^4 per well) grown for 24 h in a 96-well plate in RPMI medium without phenol red (Sigma Aldrich, Germany). Cells were then washed with PBS and loaded with 10 μM 5-(and-6)-chloromethyl-2′,7′-dichlorodihydrofluorescein diacetate acetylester (CM–H2DCFDA) (Molecular Probes-Invitrogen, Eugene, OR, USA) for 45 min, in the dark. Afterward, cells were washed with PBS and incubated with tested compounds. Fluorescence increase was estimated utilizing the wavelengths of 485 nm (excitation) and 527 nm (emission) in a VICTOR X3 (PerkinElmer, USA) plate reader. Antimycin (3 μM, Sigma Aldrich), a potent inhibitor of Complex III in the electron transport chain, was used as the positive control.

[2] = tested on: PSN-1 cells; assay: Mitochondrial membrane potential (Mito-ID kit); format: cell-based, human; conditions: IC50 concentrations
Description: The ΔΨ was assayed using the Mito-ID® Membrane Potential Kit according to the manufacturer’s instructions (Enzo Life Sciences, Farmingdale, NY, USA) as previously described. Briefly, PSN-1 cells (8 × 10^3 per well) were seeded in 96-well plates; after 24 h, cells were washed with PBS and loaded with Mito-ID Detection Reagent for 30 min at 37 °C in the dark. Afterward, cells were incubated with tested compounds for 60 min. CCCP (Carbonyl cyanide 3-chlorophenyl-hydrazone) was used as the positive control. Fluorescence intensity was estimated using a VICTOR X3 (PerkinElmer, Waltham, MA, USA) plate reader at 490 (excitation) and 590 nm (emission).

[3] = tested on: PSN-1 cells; assay: TEM analysis of mitochondria; format: cell-based, human; conditions: 24 h, IC50 concentrations
Description: In addition, TEM analyses were performed on PSN-1 cancer cells after 24 h treatment with IC50 concentrations of the representative compounds 5i and 6h.
About 10^6 PSN-1 cancer cells were seeded in 24-well plates and, after 24 h incubation, were treated with IC50 concentrations of tested compounds and incubated for an additional 24 h. Cells were then washed with cold PBS, harvested, and directly fixed with 1.5% glutaraldehyde buffer with 0.2 M sodium cacodylate, pH 7.4. After washing with buffer and postfixation with 1% OsO4 in 0.2 M cacodylate buffer, specimens were dehydrated and embedded in epoxy resin (Epon Araldite). Sagittal serial sections (1 μm) were counterstained with toluidine blue; thin sections (90 nm) were given contrast by staining with uranyl acetate and lead citrate. Micrographs were taken with a Hitachi H-600 electron microscope (Hitachi, Tokyo, Japan) operating at 75 kV. All photos were typeset in Corel Draw 11.

[4] = tested on: PSN-1 cells; assay: Cellular lactate production; format: cell-based, human; conditions: IC50 concentrations
Description: (§1) Cells were treated with DAP or representative compounds at IC50 concentrations and the changes in OCR and in the intracellular lactate formation were monitored.
PSN-1 cells (2 × 10^5) were seeded in a six-well plate in a growth medium (4 mL). After 24 h, cells were incubated for 60 min with IC50 concentrations of tested compounds. Changes in lactate production were assessed via colorimetric microplate assay (Lactate assay kit®, Merk, St. Louis, MO, USA) according to the manufacturer’s instructions. The intracellular lactate concentration was detected by measuring the absorbance of each well at 570 nm, using a Bio-Rad 680 microplate reader.

[5] = tested on: S232 PDH E1 alpha protein (PDHA1) phosphorylation in PSN-1 cells; assay: Cellular PDH phosphorylation (ELISA); format: cell-based, human; conditions: 24 h, IC50 concentrations
Description: As a first step, the ability of representative derivatives to target PDK in intact cancer cells was assessed by evaluating their effect on PDH phosphorylation of PSN-1 cancer cells.
PSN-1 cells (2 × 10^5) were seeded in a six-well plate in growth medium (4 mL). After 24 h, cells were incubated for 24 h with IC50 concentrations of tested compounds. Subsequently, the phosphorylation level of S232 PDH E1 alpha protein (PDHA1) was assessed by ELISA Kit (Abcam) following the manufacturer’s instructions. The amount of phosphorylated S232 PDHA1 protein was detected by measuring the absorbance of each well at 600 nm, using a Bio-Rad 680 microplate reader.

[6] = tested on: PSN-1 cells; assay: Cellular oxygen consumption (Mito-ID Extracellular O2 Sensor Kit); format: cell-based, human; conditions: IC50 concentrations
Description: as §1
PSN-1 cells (2 × 10^5) were seeded in a six-well plate in growth medium (4 mL). After 24 h, cells were incubated for 60 min with IC50 concentrations of tested compounds. Subsequently, oxygen consumption was assessed by Mito-ID® Extracellular O2 Sensor Kit according to manufacturer’s instructions. Fluorescence was measured using a Tecan microplate reader (Ex 340–400 nm, Em 630–680 nm).

[7] = tested on: BxPC-3 cells; assay: 3D spheroid cytotoxicity, acid phosphatase (APH) assay, BxPC-3; conditions: read-out: IC50 ±S.D. BxPC-3 (3D cytotoxicity); spheroids, 72 h, APH test
[8] = tested on: caspase-3 and -8 in PSN-1 cells; assay: Caspase-3 and -8 activity; format: cell-based, human; conditions: 24 h, IC50 doses
Description: Apoptotic cell death can be triggered by a mitochondria-mediated or mitochondrial-independent pathways. In the […], caspase-8 and caspase-3 play an essential role. […] Staurosporine (STS), an alkaloid inducing apoptosis through caspase-3 and -8 activation was used as a positive control. […] Caspase-3 and -8 cleavage reached values similar to that induced by the well-known caspase-dependent apoptosis inducer staurosporine (Figure 10C).
Protein aliquots (100 μg) were stained at 37 °C for 60 min with fluorescent caspase-3 (N-acetyl-Asp-Glu-Val-Asp-AMC, AMC = 7-amino-4-methylcoumarin) or caspase-8 (Ac-Val-Glu-Thr-Asp-AMC) substrates. Substrate hydrolysis was measured after 60 min by monitoring the release of AMC using a a Tecan microplate reader (excitation at 370 nm, emission at 460 nm).

[9] = tested on: PSN-1 cells; assay: 3D spheroid cytotoxicity, acid phosphatase (APH) assay, PSN-1; conditions: read-out: IC50 ±S.D. PSN-1 (3D cytotoxicity); spheroids, 72 h, APH test
Description: The PDAC cancer spheroids were treated with tested compounds for 72 h, and cell viability was assessed by means of the acid phosphatase (APH) assay (Table 3).
An APH-modified assay was used for determining cell viability in 3D spheroids, as previously described [61]. Briefly, the pre-seeded spheroids were treated with fresh medium containing the compound to be studied at the appropriate concentration (range 2.5–200 μM). Triplicate cultures were established for each treatment. After 72 h, each well was treated with 100 μL of the assay buffer (0.1 M sodium acetate, 0.1% Triton-X-100, supplemented with ImmunoPure p-nitrophenyl phosphate; Sigma Chemical Co., Ltd.) and, following 3 h of incubation, 10 μL of 1 M NaOH solution was added. […] The mean absorbance for each drug dose was expressed as a percentage of the control untreated well absorbance (T/C) and plotted vs. drug concentration. […] The evaluation was based on means from at least four independent experiments.

Q: For `Cn1cc(-c2nnc(N)nc2-c2cn(C)c3ccc(F)cc23)c2ccccc21` [5i], which “ROS basal level production / hydrogen peroxide formation” value [1] is on record?
A: Its value is “even higher than that provoked by antimycin”.

Q: What about the “percentage of cells with hypopolarized mitochondrial membrane potential (in words)” value [2] of the same molecule?
A: Its value is “significantly increased”.

Q: What about the “mitochondrial morphology (TEM)” value [3] of the same molecule?
A: Its value is “dramatic swelling of the mitochondria”.

Q: And the lactate production [4]?
A: Its lactate production is “more potent than DAP”.

Q: What about the “reduction in phospho-PDHA1 (S232) levels” value [5] of the same molecule?
A: The value was “very similar to that exerted by the reference PDK inhibitor DAP”.

Q: And the “cellular oxygen consumption (OCR)” value [6]?
A: The value was “more effective than DAP”.

Q: What about the IC50 [7] of the same molecule?
A: The IC50 was 34.1 ± 1.5 µM.

Q: What about the “caspase-3 and -8 activation” value [8] of the same molecule?
A: Its value is “significantly activated”.

Q: And the IC50 [9]?
A: The IC50 was 4.9 ± 0.8 µM.
